The record followed here is the supplement of paper PMC10307832.

The structures appear in SMILES notation.

Experiment in all cases: relative viability (nuclei count vs DMSO), 5 days (fraction); higher = more cells survive
One assay deals with NCI-H2342. In a few lines: (§1)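 Values are medians from duplicate plates. Each reflects relative viability, defined as the nuclei count of treated wells over that of vehicle wells. Lung cancer cell lines in 1536-well plates were pin-tool dosed one day after seeding with one drug alone or with a fixed anchor-drug dose plus five library-drug doses (not always all listed) in √10 steps, then fixed, stained and imaged at 4× after 5 days.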

Another assay relates to NCI-H1648. In a few lines: as §1
The next assay has as its system NCI-H522. In a few lines: as §1
In another assay the test system is SW 900. In a few lines:
as §1

The test system of the next assay is IA-LM. In a few lines:
as §1

The test system of another assay is NCI-H1703. The essentials: as §1
In another assay the test system is Calu-6. The essentials: as §1
A further assay relates to EBC-1. The essentials:
as §1

A further assay relates to A549. In a few lines: as §1
The next assay concerns NCI-H1563. The essentials: as §1
Another assay has as its system NCI-H1299. The essentials: as §1

Take `O=c1[nH]c2ccccc2n1C1CCN(CCCC(c2ccc(F)cc2)c2ccc(F)cc2)CC1` [Pimozide] + CC(=O)c1c(C)c2cnc(Nc3ccc(N4CCNCC4)cn3)nc2n(C2CCCC2)c1=O [Palbociclib] (partner 0.5 µM): the relative viability in the assay with NCI-H2342 (first compound 0.08 µM) was 0.573; in the assay with NCI-H2342 (first compound 0.253 µM), 0.526; in the assay with NCI-H2342 (first compound 0.8 µM) it was 0.436; with NCI-H2342 (first compound 2.53 µM), 0.484; in the assay with NCI-H2342 (first compound 8 µM), 0.507; in the assay with NCI-H1648 (first compound 0.08 µM), 0.301. Also, the relative viability with NCI-H1648 (first compound 0.8 µM) was 0.233; in the assay with NCI-H1648 (first compound 2.53 µM), 0.282; with NCI-H1648 (first compound 8 µM), 0.31; in the assay with NCI-H522 (first compound 0.08 µM), 0.766; with NCI-H522 (first compound 0.253 µM), 0.785; with NCI-H522 (first compound 0.8 µM), 0.94. Moreover, the relative viability was determined as 0.891 with NCI-H522 (first compound 2.53 µM); 0.901 with NCI-H522 (first compound 8 µM); 0.526 in the assay on SW 900 (first compound 0.08 µM); 0.572 with SW 900 (first compound 0.253 µM); 0.511 in the assay with SW 900 (first compound 2.53 µM); 0.443 with SW 900 (first compound 8 µM).
With `O=C(O)CCCCC(CCSCc1ccccc1)SCc1ccccc1` (stereo unspecified) [CPI-613] + CC(=O)Nc1cccc(-n2c(=O)n(C3CC3)c(=O)c3c(Nc4ccc(I)cc4F)n(C)c(=O)c(C)c32)c1 [Trametinib] (partner 0.02 µM), the relative viability worked out at 0.747 in the assay with NCI-H2342 (first compound 5 µM); 0.888 with NCI-H2342 (first compound 15.81 µM); 0.977 in the assay with NCI-H2342 (first compound 50 µM); 0.786 in the assay on NCI-H2342 (first compound 158.11 µM); 0.955 in the assay with NCI-H2342 (first compound 500 µM); 0.454 in the assay with NCI-H1648 (first compound 5 µM). Further, the relative viability with NCI-H1648 (first compound 15.81 µM) worked out at 0.376; in the assay with NCI-H1648 (first compound 50 µM), 0.533; in the assay on NCI-H1648 (first compound 158.11 µM), 0.218; with NCI-H1648 (first compound 500 µM) it was 0.14; in the assay with NCI-H522 (first compound 5 µM), 0.707; with NCI-H522 (first compound 15.81 µM), 0.739. The relative viability with NCI-H522 (first compound 50 µM) was determined as 0.751; in the assay with NCI-H522 (first compound 158.11 µM), 0.651; in the assay on NCI-H522 (first compound 500 µM), 0.284; in the assay on SW 900 (first compound 5 µM), 0.701; in the assay on SW 900 (first compound 50 µM), 0.706; with SW 900 (first compound 158.11 µM) it was 0.359. Moreover, the relative viability in the assay on SW 900 (first compound 500 µM) turned out to be 0.0323.
As to `Cc1cnc(-c2cnc(NCCNc3ccc(C#N)cn3)nc2-c2ccc(Cl)cc2Cl)[nH]1` + O=C(CCCCCCC(=O)Nc1ccccc1)NO [Vorinostat] (partner 1 µM), the relative viability was determined as 0.753 with NCI-H2342 (first compound 0.08 µM); 0.685 in the assay with NCI-H2342 (first compound 0.253 µM); 0.838 in the assay with NCI-H2342 (first compound 0.8 µM); 0.648 in the assay with NCI-H2342 (first compound 2.53 µM); 0.718 in the assay with NCI-H1648 (first compound 0.08 µM); 0.516 in the assay on NCI-H1648 (first compound 0.253 µM). Moreover, the relative viability amounted to 0.241 in the assay with NCI-H1648 (first compound 0.8 µM); 0.327 in the assay with NCI-H1648 (first compound 2.53 µM); 1.01 with NCI-H522 (first compound 0.08 µM); 0.947 in the assay on NCI-H522 (first compound 0.253 µM); 0.958 with NCI-H522 (first compound 0.8 µM); 0.842 in the assay with NCI-H522 (first compound 2.53 µM). Moreover, the relative viability turned out to be 1.16 in the assay on IA-LM (first compound 0.08 µM); 0.973 in the assay with IA-LM (first compound 0.8 µM); 0.888 in the assay with IA-LM (first compound 2.53 µM); 0.381 in the assay on SW 900 (first compound 0.08 µM); 0.49 in the assay with SW 900 (first compound 0.253 µM); 0.519 in the assay on SW 900 (first compound 0.8 µM). In addition, the relative viability in the assay on SW 900 (first compound 2.53 µM) was determined as 0.472.
As for `O=C(O)CCCCC(CCSCc1ccccc1)SCc1ccccc1` (stereo unspecified) [CPI-613] + CS(=O)(=O)N1CCN(Cc2cc3nc(-c4cccc5[nH]ncc45)nc(N4CCOCC4)c3s2)CC1 [Pictilisib] (partner 1 µM), the relative viability was 0.25 with NCI-H1703 (first compound 5 µM); 0.264 in the assay with NCI-H1703 (first compound 15.81 µM); 0.27 in the assay on NCI-H1703 (first compound 50 µM); 0.213 in the assay on NCI-H1703 (first compound 158.11 µM); 0.115 in the assay on NCI-H1703 (first compound 500 µM); 0.938 with Calu-6 (first compound 5 µM). Besides, the relative viability with Calu-6 (first compound 15.81 µM) was 0.811; in the assay on Calu-6 (first compound 50 µM) it was 0.754; with Calu-6 (first compound 158.11 µM), 0.446; with Calu-6 (first compound 500 µM), 0.111; with EBC-1 (first compound 5 µM), 0.391; in the assay on EBC-1 (first compound 15.81 µM), 0.37. Besides, the relative viability in the assay with EBC-1 (first compound 50 µM) was 0.362; with EBC-1 (first compound 158.11 µM) it was 0.206; in the assay with EBC-1 (first compound 500 µM), 0.0773; in the assay with A549 (first compound 5 µM) it was 0.491; in the assay with A549 (first compound 15.81 µM), 0.414; with A549 (first compound 50 µM), 0.39. In addition, the relative viability with A549 (first compound 158.11 µM) turned out to be 0.127; in the assay with A549 (first compound 500 µM), 0.0559; in the assay on IA-LM (first compound 5 µM), 0.294; with IA-LM (first compound 15.81 µM), 0.307; in the assay on IA-LM (first compound 50 µM), 0.238; in the assay with IA-LM (first compound 158.11 µM), 0.0746. The relative viability with IA-LM (first compound 500 µM) worked out at 0.0098; in the assay with NCI-H1563 (first compound 5 µM) it was 0.657; with NCI-H1563 (first compound 15.81 µM) it was 0.597; in the assay with NCI-H1563 (first compound 50 µM) it was 0.623; in the assay with NCI-H1563 (first compound 158.11 µM) it was 0.513; with NCI-H1563 (first compound 500 µM) it was 0.193. Moreover, the relative viability in the assay with NCI-H1299 (first compound 5 µM) turned out to be 0.789; in the assay on NCI-H1299 (first compound 15.81 µM) it was 0.756; in the assay on NCI-H1299 (first compound 50 µM) it was 0.785; with NCI-H1299 (first compound 158.11 µM), 0.404; in the assay with NCI-H1299 (first compound 500 µM) it was 0.106.
